These results are taken from patent publication US20250368611A1, “METHOD FOR PREPARING BERAPROST 314-D SODIUM” (YS Life Science Co., Ltd., priority 2024, published 2025).

One data set concerns IL-6. As to the kind of experiment: CD19 CAR T-cell / Raji co-culture: IL-6 in supernatant by multiplex Luminex. The format is cell-based, human. From the text:
(§1) The impact of CTO1681 on the efficacy of CD19-targeting CAR T-cells in vitro as well as its ability to reduce CRS-inducing pro-inflammatory cytokine levels in the presence of CAR T-cells and tumor cells in vitro were explored. […] CD3 T cells were sorted from one healthy donor PBMCs, stimulated for a short period of time and transduced with CD19 CAR-T lentivirus (LV) containing CD28 and CD3ζ domains. CD19 CAR T-cells were expanded for 6 days and used in the assay. CD19-targeting CD3 T-cells were treated with 5 increasing concentrations of CTO1681 (0.36 nM, 1.8 nM, 9 nM, 45 nM, and 225 nM) or vehicle for 30 minutes, prior to, and during co-culture with CD19+ Raji lymphoma target cells. Media alone, vehicle, and positive control (dexamethasone) wells were included. Following initial treatment, CAR T-cells (Effectors) were co-cultured with fluorescently labeled CD19+ Raji tumor cells (Target cells) at 3 different Effector:Target cell ratios (10:1, 5:1 and 1:1) and treated with 5 different concentrations of CTO1681 or vehicle for 24 hours. Target cells (Raji cells) were fluorescently labelled with CPD (eBioscience™ Cell Proliferation Dye eFluor™) prior to co-culture to distinguish the Raji cells from the effector cells and allow for analysis of target viability by flow cytometry. Following incubation, supernatant was collected and levels of pro-inflammatory cytokines IL-6 and TNF-α were measured by multiplex Luminex assay and […] was measured via time-resolved fluorescence resonance energy transfer (TR-FRET) assay. These cytokines were selected for quantification as they are early cytokines released following CAR T-cell infusion in vivo that causes hyperactivation of the immune system resulting in acute systemic inflammation, CRS, multiorgan failure, and possible death. In addition, flow cytometry was used to measure the level of Raji tumor/target cell death following CAR T treatment across CTO1681 conditions to measure impact of CTO1681 with CAR T-cell efficacy. Co-cultures were stained with viability dye 7-AAD for measuring viability.

The next data set has as its system TNF-α. As to the kind of experiment: CD19 CAR T-cell / Raji co-culture: TNF-α in supernatant by multiplex Luminex. The format is cell-based, human.
Description: as §1

The next data set concerns IFN-γ. As to the kind of experiment: CD19 CAR T-cell / Raji co-culture: IFN-γ in supernatant by TR-FRET. Format: cell-based, human.
Description: as §1

Data set [1] relates to CD19+ Raji lymphoma target cells. As to the kind of experiment: CD19 CAR T-cell killing of Raji target cells, flow cytometry (7-AAD). The format is cell-based, human. The settings on record: all concentrations 0.36-225 nM; 24 hours co-culture. From the text: The impact of CTO1681 on the efficacy of CD19-targeting CAR T-cells in vitro as well as its ability to reduce CRS-inducing pro-inflammatory cytokine levels in the presence of CAR T-cells and tumor cells in vitro were explored. […] CD3 T cells were sorted from one healthy donor PBMCs, stimulated for a short period of time and transduced with CD19 CAR-T lentivirus (LV) containing CD28 and CD3ζ domains. CD19 CAR T-cells were expanded for 6 days and used in the assay. CD19-targeting CD3 T-cells were treated with 5 increasing concentrations of CTO1681 (0.36 nM, 1.8 nM, 9 nM, 45 nM, and 225 nM) or vehicle for 30 minutes, prior to, and during co-culture with CD19+ Raji lymphoma target cells. Media alone, vehicle, and positive control (dexamethasone) wells were included. […] Following incubation, supernatant was collected and levels of pro-inflammatory cytokines IL-6 and TNF-α were measured by multiplex Luminex assay and […] was measured via time-resolved fluorescence resonance energy transfer (TR-FRET) assay. These cytokines were selected for quantification as they are early cytokines released following CAR T-cell infusion in vivo that causes hyperactivation of the immune system resulting in acute systemic inflammation, CRS, multiorgan failure, and possible death. […]

For another data set, the system named is Raji-luc tumor cells. The data set is described as follows: CAR T-cell efficacy in NSG mice bearing Raji-luc tumors (IVIS imaging). The format is in vivo. The settings on record: 0.3, 0.2 or 0.15 mg/kg/d BID for 14 days; Day 15. Here is the method: The effects if any, of CTO1681 on CAR T-cell activity in vivo were measured. Human T-cells expressing CD19-CD28-CD3Z CAR construct was used in this experiment. 6-7 week old NSG™ (NOD SCID gamma) mice were engrafted with 1×10^6 luciferase (luc) expressing Raji tumor cells (herein referred to as “Raji-luc” tumor cells) each on Day 1 to allow for tumor growth over a 7-day period prior to the commencement of the treatment. CAR T-cell infusion was performed intravenously via lateral tail vein on (5×10^6 CD19 CAR T-cells generated from healthy donors). NSG mice are severely immunodeficient, which facilitates ready tumor engraftment and subsequent clearance due to CAR T-cells can be measured. Tumor growth after engraftment and subsequent clearance were monitored once weekly (starting on Day 7) using IVIS imaging to detect luciferase signal in living mice. CTO1681 administration began on Day 8, two days before CAR T-cell infusion, with injections twice a day for 14 days. Mice received total daily CTO1681 doses of 0.3 mg/kg/d, 0.2 mg/kg/d, or 0.15 mg/kg/d via two injections (BID). CTO1681 doses were selected based on the pharmacokinetic profile of the drug in mice. […] Mice were monitored for body temperature and health evaluations (weight, movement, posture, fur condition, etc.) throughout the entire study.

A short description of data set [2]: Health evaluations in NSG tumor-bearing mice. The format is in vivo. The conditions noted are these: 0.3, 0.2 or 0.15 mg/kg/d BID for 14 days with CAR T-cells. How it is done: Tumor growth after engraftment and subsequent clearance were monitored once weekly (starting on Day 7) using IVIS imaging to detect luciferase signal in living mice. CTO1681 administration began on Day 8, two days before CAR T-cell infusion, with injections twice a day for 14 days. Mice received total daily CTO1681 doses of 0.3 mg/kg/d, 0.2 mg/kg/d, or 0.15 mg/kg/d via two injections (BID). CTO1681 doses were selected based on the pharmacokinetic profile of the drug in mice. Control groups included mice receiving Raji-luc tumor cells without CAR T-cell treatment, mice receiving Raji-luc tumor cells and a CAR T-cell infusion, and mice receiving Raji-luc tumor cells with vehicle treatments. Mice were monitored for body temperature and health evaluations (weight, movement, posture, fur condition, etc.) throughout the entire study.

Setting [3] is: 10:1 ratio of Effectors to Target cells, 0.36-225 nM, 24 hours.
Where [4] appears, read: CAR T-cells:Raji cells 10:1, 0.36-225 nM.
[5] abbreviates: across three ratios of CAR-T cells to Raji cells (10:1, 5:1, 1:1).

Molecules are shown by their SMILES. “Also recorded” adds a separate entry of the source.

On to `CC#CC[C@H](C)[C@H](O)/C=C/[C@@H]1[C@H]2c3cccc(CCCC(=O)[O-])c3O[C@H]2C[C@H]1O.[Na+]` [CTO1681, sodium 4-((1R,2R,3aS,8bS)-2-hydroxy-1-((3S,4S,E)-3-hydroxy-4-methyloct-1-en-6-yn-1-yl)-2,3,3a,8b-tetrahydro-1H-cyclopenta[b]benzofuran-5-yl)butanoate], for which the “Maximum reduction IL-6” value in the data set with IL-6 (setting [3]) is given as around 23%. For the same compound, the “Effect on IL-6 levels” value in the data set on IL-6 (setting [4]) was “dose-dependently reduced; also recorded: dose-dependently lowers”. The “IL-6 with increasing concentrations” value with IL-6 (setting [5]) is “reduction”. In addition, the “Maximum reduction TNF-α” value in the data set on TNF-α (setting [3]) is recorded as “approximately 50%”. The “Effect on TNF-α levels” value in the data set with TNF-α (setting [4]) is listed as “dose-dependently reduced; also recorded: dose-dependently lowers”. The “TNF-α with increasing concentrations” value with TNF-α (setting [5]) is “reduction”. Further, the IFN-γ in the data set on IFN-γ (setting [3]) is listed as around 26%; with IFN-γ (setting [5]), “reduction”. Besides, the “Effect on IFN-γ levels” value with IFN-γ (setting [4]) is recorded as “dose-dependently reduced; also recorded: dose-dependently lowers”. Also, the “Effect on tumor/target cell killing by CD19-directed CAR T-cells” value in data set [1] is “did not impact or interfere; also recorded: absence of an effect”. Also, the “Effect on CD19 CAR T-cell activity (reduction of tumor burden, luciferase signal)” value in the data set on Raji-luc tumor cells was “did not affect; also recorded: does not interfere”. The “Clinical morbidities, including weight loss or limb movement” value in data set [2] was “did not cause any increase”.
